Data on one compound can be found in paper PMC2045673, “Site-specific acetylation of ISWI by GCN5” (BMC Molecular Biology, 2007).

Each structure is given as a SMILES string.

Holding throughout (assay): radiometric HAT assay, SDS-PAGE autoradiography
Common to all, as to assay type: biochemical

In one assay the target is T1, p300 (FLAG-p300) (Homo sapiens, UniProt Q09472).
T1 construct: gene EP300; FLAG-tagged recombinant p300
The following applies: labelled compound; co-substrate histones, ISWI or peptide; pH 7.8, 26 °C.

A further assay has as its target T2, MOF (HA-MOF) (Drosophila melanogaster, UniProt O02193).
T2 construct: HA-tagged recombinant MOF
T2 sequence (O02193 1-827): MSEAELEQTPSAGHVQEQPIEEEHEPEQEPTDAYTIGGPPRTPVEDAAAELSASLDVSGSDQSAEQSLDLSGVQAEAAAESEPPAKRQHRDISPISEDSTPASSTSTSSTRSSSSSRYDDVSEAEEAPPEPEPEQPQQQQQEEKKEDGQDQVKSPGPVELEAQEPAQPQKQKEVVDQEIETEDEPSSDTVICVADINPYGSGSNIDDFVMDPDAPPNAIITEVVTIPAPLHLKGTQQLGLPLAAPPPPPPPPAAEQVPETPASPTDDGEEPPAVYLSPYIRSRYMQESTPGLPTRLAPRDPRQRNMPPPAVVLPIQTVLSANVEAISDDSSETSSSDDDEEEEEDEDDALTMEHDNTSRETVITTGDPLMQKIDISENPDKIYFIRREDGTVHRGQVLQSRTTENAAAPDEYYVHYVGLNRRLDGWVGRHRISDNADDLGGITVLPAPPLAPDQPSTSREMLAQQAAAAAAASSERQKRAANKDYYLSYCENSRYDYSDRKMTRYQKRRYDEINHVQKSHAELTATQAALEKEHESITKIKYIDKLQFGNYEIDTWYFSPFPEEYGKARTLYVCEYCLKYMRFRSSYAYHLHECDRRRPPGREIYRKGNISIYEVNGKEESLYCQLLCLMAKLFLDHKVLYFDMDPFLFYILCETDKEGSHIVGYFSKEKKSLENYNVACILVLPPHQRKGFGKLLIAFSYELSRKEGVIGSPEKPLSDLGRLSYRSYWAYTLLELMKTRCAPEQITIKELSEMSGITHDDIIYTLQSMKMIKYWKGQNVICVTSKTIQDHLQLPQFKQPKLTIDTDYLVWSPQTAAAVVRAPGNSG
To be noted: labelled compound; co-substrate histones; pH 7.8, 26 °C.

Another assay addresses T3, GCN5 (GST-hGCN5) (Homo sapiens, UniProt Q92830).
T3 construct: gene KAT2A; GST-tagged, recombinant from E. coli
To be noted: labelled compound; co-substrate histones, ISWI or peptide; pH 7.8, 26 °C.

T3 sequence (Q92830 whole entry): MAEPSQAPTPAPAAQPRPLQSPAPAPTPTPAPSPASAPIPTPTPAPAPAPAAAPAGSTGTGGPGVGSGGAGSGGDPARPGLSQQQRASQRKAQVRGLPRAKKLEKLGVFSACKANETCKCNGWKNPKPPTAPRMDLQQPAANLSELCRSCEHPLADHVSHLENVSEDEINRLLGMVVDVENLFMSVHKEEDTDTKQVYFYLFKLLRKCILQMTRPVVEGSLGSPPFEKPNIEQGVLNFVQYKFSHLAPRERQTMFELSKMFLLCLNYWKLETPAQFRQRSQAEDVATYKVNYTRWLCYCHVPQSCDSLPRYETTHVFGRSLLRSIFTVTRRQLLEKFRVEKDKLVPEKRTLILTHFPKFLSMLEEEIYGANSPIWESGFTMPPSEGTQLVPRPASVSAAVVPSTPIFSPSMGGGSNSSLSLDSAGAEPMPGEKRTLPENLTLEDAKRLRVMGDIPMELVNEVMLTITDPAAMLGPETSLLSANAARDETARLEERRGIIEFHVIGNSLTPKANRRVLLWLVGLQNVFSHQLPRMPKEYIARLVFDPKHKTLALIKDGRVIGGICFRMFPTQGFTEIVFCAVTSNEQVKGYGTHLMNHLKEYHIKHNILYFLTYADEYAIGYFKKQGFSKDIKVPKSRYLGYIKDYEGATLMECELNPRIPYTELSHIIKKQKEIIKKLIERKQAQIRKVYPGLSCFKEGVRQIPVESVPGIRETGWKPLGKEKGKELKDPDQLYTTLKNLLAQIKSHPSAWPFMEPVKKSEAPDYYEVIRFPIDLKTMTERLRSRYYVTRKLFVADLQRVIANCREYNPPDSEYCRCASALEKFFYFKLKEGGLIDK
T1 sequence (Q09472 2-2414): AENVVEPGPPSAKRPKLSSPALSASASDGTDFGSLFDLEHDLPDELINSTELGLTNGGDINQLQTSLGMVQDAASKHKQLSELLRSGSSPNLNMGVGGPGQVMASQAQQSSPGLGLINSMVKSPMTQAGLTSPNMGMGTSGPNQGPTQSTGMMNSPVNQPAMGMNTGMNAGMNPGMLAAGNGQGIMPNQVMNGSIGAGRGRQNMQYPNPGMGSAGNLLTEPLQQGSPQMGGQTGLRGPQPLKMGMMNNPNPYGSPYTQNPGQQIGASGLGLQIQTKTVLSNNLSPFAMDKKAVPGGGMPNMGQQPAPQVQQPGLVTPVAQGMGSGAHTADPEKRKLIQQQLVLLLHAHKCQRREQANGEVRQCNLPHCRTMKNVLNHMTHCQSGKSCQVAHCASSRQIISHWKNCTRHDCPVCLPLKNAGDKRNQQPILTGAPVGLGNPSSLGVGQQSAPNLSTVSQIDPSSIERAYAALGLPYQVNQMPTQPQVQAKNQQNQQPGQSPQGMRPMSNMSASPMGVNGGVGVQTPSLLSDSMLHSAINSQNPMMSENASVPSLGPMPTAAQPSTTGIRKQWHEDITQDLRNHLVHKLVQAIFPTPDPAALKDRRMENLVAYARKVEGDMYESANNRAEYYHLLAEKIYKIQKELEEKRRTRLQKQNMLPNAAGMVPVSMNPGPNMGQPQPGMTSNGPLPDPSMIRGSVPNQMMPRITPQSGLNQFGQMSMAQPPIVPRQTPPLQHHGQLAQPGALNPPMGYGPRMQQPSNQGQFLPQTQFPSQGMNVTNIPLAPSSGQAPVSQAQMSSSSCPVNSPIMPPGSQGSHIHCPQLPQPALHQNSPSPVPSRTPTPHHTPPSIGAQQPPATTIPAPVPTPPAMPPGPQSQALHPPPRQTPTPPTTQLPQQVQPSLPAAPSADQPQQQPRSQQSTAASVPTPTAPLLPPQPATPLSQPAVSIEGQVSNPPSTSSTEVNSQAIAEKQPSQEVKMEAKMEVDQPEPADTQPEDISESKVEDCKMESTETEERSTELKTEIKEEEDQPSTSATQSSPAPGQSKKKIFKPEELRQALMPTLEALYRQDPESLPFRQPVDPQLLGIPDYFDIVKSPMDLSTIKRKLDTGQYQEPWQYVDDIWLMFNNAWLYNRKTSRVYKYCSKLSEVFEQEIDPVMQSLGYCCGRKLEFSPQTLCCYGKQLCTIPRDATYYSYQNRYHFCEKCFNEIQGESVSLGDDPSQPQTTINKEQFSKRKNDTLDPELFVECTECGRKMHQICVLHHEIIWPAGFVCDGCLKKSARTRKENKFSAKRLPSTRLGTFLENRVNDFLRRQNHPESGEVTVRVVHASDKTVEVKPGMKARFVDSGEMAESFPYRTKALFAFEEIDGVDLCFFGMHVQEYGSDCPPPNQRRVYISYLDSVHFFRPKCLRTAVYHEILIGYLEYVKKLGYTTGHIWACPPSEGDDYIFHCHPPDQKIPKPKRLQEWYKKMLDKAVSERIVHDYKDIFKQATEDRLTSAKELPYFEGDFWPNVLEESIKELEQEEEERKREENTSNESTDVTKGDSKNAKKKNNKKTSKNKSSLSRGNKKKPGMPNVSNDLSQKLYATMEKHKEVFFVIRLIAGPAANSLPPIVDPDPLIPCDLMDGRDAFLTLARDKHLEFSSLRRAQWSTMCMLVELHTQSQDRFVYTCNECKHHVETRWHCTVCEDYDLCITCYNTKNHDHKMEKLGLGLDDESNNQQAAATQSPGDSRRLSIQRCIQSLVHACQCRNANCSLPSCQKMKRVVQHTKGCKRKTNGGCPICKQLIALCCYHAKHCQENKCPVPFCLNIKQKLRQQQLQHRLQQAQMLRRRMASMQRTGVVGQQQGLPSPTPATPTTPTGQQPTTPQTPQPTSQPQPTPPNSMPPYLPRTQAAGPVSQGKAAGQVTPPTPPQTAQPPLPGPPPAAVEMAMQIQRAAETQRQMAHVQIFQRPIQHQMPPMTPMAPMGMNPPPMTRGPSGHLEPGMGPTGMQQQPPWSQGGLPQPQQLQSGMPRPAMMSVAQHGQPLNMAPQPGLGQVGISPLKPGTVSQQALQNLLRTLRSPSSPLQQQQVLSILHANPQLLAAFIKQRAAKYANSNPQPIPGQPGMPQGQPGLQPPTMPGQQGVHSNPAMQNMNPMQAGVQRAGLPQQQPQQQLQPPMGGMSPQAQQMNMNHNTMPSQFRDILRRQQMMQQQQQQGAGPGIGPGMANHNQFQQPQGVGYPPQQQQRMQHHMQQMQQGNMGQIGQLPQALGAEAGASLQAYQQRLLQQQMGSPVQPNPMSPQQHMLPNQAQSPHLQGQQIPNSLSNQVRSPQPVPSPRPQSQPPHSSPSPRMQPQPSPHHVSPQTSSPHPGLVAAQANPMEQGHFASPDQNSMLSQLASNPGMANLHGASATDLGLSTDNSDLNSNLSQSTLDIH

As for `CC(=O)SCCNC(=O)CCNC(=O)[C@H](O)C(C)(C)COP(=O)(O)OP(=O)(O)OC[C@H]1O[C@@H](n2cnc3c(N)ncnc32)[C@H](O)[C@@H]1OP(=O)(O)O` [acetyl-CoA], the “radiometric HAT assay, SDS-PAGE autoradiography” value at p300 (FLAG-p300) was “The histone acetyltransferase activities of recombinant GCN5, p300 and MOF were assayed”; at MOF (HA-MOF), “The histone acetyltransferase activities of recombinant GCN5, p300 and MOF were assayed”; on GCN5 (GST-hGCN5), “The histone acetyltransferase activities of recombinant GCN5, p300 and MOF were assayed”.
